Patent US20200268864A1, “CANCER VACCINE COMPOSITIONS AND METHODS FOR USING SAME TO TREAT CANCER” (Dana-Farber Cancer Institute, Inc., priority 2017, published 2020)
Entries after “also recorded” stand apart in the source; their conditions may differ.

Assays:
[1] = tested on: STING pathway in BMDCs co-cultured with PPM cells; test: Co-culture of BMDCs with olaparib-treated PPM tumor cells; format: cell-based, mouse
Experimental: Blood was obtained by retro-orbital sampling at intermediate time points or experimental end points. Blood cells and plasma/sera were separated by centrifugation at 1,500×g for 5 min. at 4° C. Plasmaisera were sent out to Eve Technologies for cytokine array analysis (Chemokine Array 31-Plex and Mouse Procarta IFN 2-plex Featured Assay). Plasma/sera were applied to ELISA according to manufacturer's instructions. For in vitro experiments, cell culture supernatants were obtained by centrifugation at 1,500×g for 5 min. at 4° C. to remove all debris and cells, and were then subjected to ELISA analysis. IFN-β was detected using the LEGEND MAX™ Mouse IFN-β ELISA Kit (BioLegend).
Bone marrow cells were isolated from FVB/NJ mice and cultured in RPMI-1640 containing 10% FBS and 20 ng/ml GM-CSF. BMDCs (bone marrow derived dendritic cells) were harvested for in vitro co-culture assay on day 7 to day 10. About 3×10^5 PBM or PPM tumor cells were cultured in a 6-well plate for 24 hr. and then treated with DMSO or olaparib. After 24 hr incubation with DMSO, olaparib, or olaparib in combination with other drugs (cell cycle inhibitor or apoptosis inhibitor), drugs were removed and tumor cells were washed twice with PBS. BMDCs were added and co-cultured with PBM or PPM cells at a ratio of 1:1 in 1.5 ml culture media in the presence of GM-CSF (20 ng/ml) and lipofectamine (2 μl) for 24 hr. […]

[2] = tested on: human DCs co-cultured with UWB1.289; test: Co-culture of human DCs with olaparib-treated UWB1.289 cells; format: cell-based; details: BRCA1-deficient UWB1.289
Experimental: Bone marrow cells were isolated from FVB/NJ mice and cultured in RPMI-1640 containing 10% FBS and 20 ng/ml GM-CSF. BMDCs (bone marrow derived dendritic cells) were harvested for in vitro co-culture assay on day 7 to day 10. About 3×10^5 PBM or PPM tumor cells were cultured in a 6-well plate for 24 hr. and then treated with DMSO or olaparib. After 24 hr incubation with DMSO, olaparib, or olaparib in combination with other drugs (cell cycle inhibitor or apoptosis inhibitor), drugs were removed and tumor cells were washed twice with PBS. BMDCs were added and co-cultured with PBM or PPM cells at a ratio of 1:1 in 1.5 ml culture media in the presence of GM-CSF (20 ng/ml) and lipofectamine (2 μl) for 24 hr. Co-cultured cells were harvested for flow cytometry analysis and floating cells (percentage of BMDCs is about 90%), or RNA analysis. Cell culture supernatants were collected for detection of IFN-β with the ELISA kit. BMDCs generated from C57BL/6J mice were applied for the coculture of BMDCs with ID8 tumor cells. Human dendritic cells purchased from Lonza were used for the coculture of human DCs with DMSO or olaparib-treated human ovarian cancer cells ([…] and UWB1.289+BRCA1).

PD-L1 on PBM tumor cells = test: PD-L1 expression on PBM tumor cells (RT-qPCR, flow cytometry); design: species or system mouse; details: PBM tumors in vivo and cultured PBM cells
Experimental: Tumors were first mechanically disrupted by chopping, then chemically digested in collagenase buffer (8 mL DMEM, 0.1 mL 1M HEPES, 0.5 mL FBS, 0.2 mL Pen/Strep, 1 m, 10× collagenase/hyaluronidase (Stemcell Technologies), 0.2 mL of 1 mg/mL DNase I (Stemcell Technologies) at 37° C. for 45 min. Single-cell suspensions of spleen and lymph nodes were obtained by mashed through a 70 um strainer using the plunger of a 3 mL or 5 mL syringe. Single cells suspensions were treated with red blood lysis buffer (4 mL NH4Cl+1 mL PBS with 2% calf serum) and washed with FACS buffer. Single cells suspensions were incubated with LIVE/DEAD Fixable Aqua Dead Cell Stain (Life Technologies, Cat # L34965) for 30 min and then blocked with anti-CD16/32 (BioLegend, clone 93) for 20 min on ice. Samples were then incubated with appropriate antibodies for 30 min. on ice. The Foxp3 staining buffer set (eBioscience, Cat #00-5523-00) was applied for intracellular markers staining. For the intracellular cytokine analysis, cells were stimulated with Leukocyte Activation Cocktail (BD Biosciences, Cat #550583) at 37° C. for 5 hours prior to FACS staining. […] Flow cytometry was performed on an LSR II (BD Biosciences) or LSRFortessa™ HTS (BD Biosciences) at the DFCI flow cytometry core facility, and all the data were analyzed using FlowJo software. […]

PBM cells = test: Cell death of PBM cells in culture; format: cell-based, mouse; details: 2.5 uM for 24 hours

O=C(c1cc(Cc2n[nH]c(=O)c3ccccc23)ccc1F)N1CCN(C(=O)C2CC2)CC1 [olaparib, Olaparib]
STING-dependent activation of BMDCs (IFNβ and CXCL10 expression) [1]: not observed
levels of p-TBK1+p-IRF3+ and IFN-β in human DCs [2]: Increased levels
expression of immune-inhibitory ligand PD-L1 on tumor cells (PD-L1 on PBM tumor cells): highly enhanced expression; also recorded: significantly increased expression
cell death in PBM cells (PBM cells): did not induce substantial cell death
